Literature values, collected in patent publication US20140256761A1, “ENHANCED ARTEMISININ-BASED COMBINATION THERAPY FOR TREATING PARASITIC MEDIATED DISEASE” (priority 2009, published 2014).

Key:
[1] = generally considered
[2] = in vivo
[3] = in water or oils

Structure (SMILES)	solubility [3]	other results
COc1ccc2cc3[n+](cc2c1OC)CCc1cc2c(cc1-3)OCO2 [Berberine, (5,6-Dihydro-9,10-dimethoxybenzo[g]-1,3-benzodioxolo[5,6-a]quinolizinium)]		toxicity [1]: non-toxic
COc1cc(NC(C)CCCN)c2ncccc2c1 (centres unmarked) [Primaquine]		absorption from the gastro-intestinal tract [2]: readily absorbed
CO[C@H]1O[C@@H]2O[C@@]3(C)CC[C@H]4[C@H](C)CC[C@@H]([C@H]1C)[C@@]24OO3 [artemether, (+)-(3-alpha,5a-beta,6-beta,8a-beta, 9-alpha,12-beta,12aR)-decahydro-10-methoxy-3,6,9-trimethyl-3,12-epoxy-12H-pyrano(4,3-j)-1,2-benzodioxepin]	lipid-soluble	
C[C@@H]1CC[C@H]2[C@@H](C)C(=O)O[C@@H]3O[C@@]4(C)CC[C@@H]1[C@]32OO4 [artemisinin]	sparingly soluble	
C[C@H]1[C@H](OC(=O)CCC(=O)O)O[C@@H]2O[C@@]3(C)CC[C@H]4[C@H](C)CC[C@@H]1[C@@]24OO3 [artesunate, 3R,5aS,6R,8aS,9R,10S,12R,12aR)-Decahydro-3,6,9-trimethyl-3,12-epoxy-12H-pyrano(4,3-j)-1,2-benzodioxepin-10-ol hydrogen succinate]	water-soluble	
